# According to patent US20230065953A1, “NOVEL HETEROARYL-TRIAZOLE COMPOUNDS AS PESTICIDES” (Bayer Aktiengesellschaft, priority 2019, published 2023):
# How the values were obtained:
# Assay type in all cases: in vivo
# [1] = test system: Rhipicephalus microplus larvae (strain Parkhurst, resistant against synthetic pyrethroids); test: Rhipicephalus (Boophilus) microplus in-vitro contact test, larval cattle tick; details: 5 μg/cm^2 (=500 g/ha), after 48 hours, read-out: efficacy (larvae dead or moribund)
# How it was run: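 Compound in acetone coated onto the inner walls of glass tubes (900 ppm giving 5 μg/cm^2), solvent evaporated, then 20–50 larvae added and held at 27 °C, 85% RH. After 48 h, efficacy scored from negative geotactic behaviour as % dead or moribund larvae.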
# [2] = test system: adult engorged female ticks (Rhipicephalus microplus); test: Rhipicephalus (Boophilus) microplus injection test; details: 168 h, 4 μg/animal, egg deposition after 7 days, read-out: efficacy (infertile eggs)
# How it was run: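 Five adult engorged female ticks each injected into the abdomen with 1 μL of compound in DMSO, then kept in a climate chamber. Fertile egg deposition assessed after 7 days, with unclear eggs held until hatching around 42 days; efficacy 100% means all eggs infertile, 0% all fertile.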
# [3] = test system: adult cat fleas (Ctenocephalides felis); test: Ctenocephalides felis in-vitro contact test, adult cat flea; details: 5 μg/cm^2 (=500 g/ha), after 48 hours
# How it was run: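 After 48 h of room-temperature exposure in tubes whose walls carried dried compound residue (5 μg/cm^2, from 900 ppm acetone solution), adult cat fleas (5-10 per tube) were heat-challenged at 45-50° C up to 5 min. Fleas unable to climb away were counted dead or moribund, expressed as % efficacy.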
# [4] = test system: adult unfed cat fleas (Ctenocephalides felis); test: Ctenocephalides felis oral test; details: 48 h
# How it was run: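 About 20 adult unfed fleas fed through parafilm on cattle blood containing compound (DMSO stock diluted in blood), blood held at 37 °C and fleas at room temperature. Mortality (%) scored after 2 days.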
# [5] = test system: adult brown dog ticks (Rhipicephalus sanguineus); test: Rhipicephalus sanguineus in-vitro contact test with adult brown dog ticks; details: 5 μg/cm^2 (=500 g/ha), after 48 hours, read-out: efficacy (ticks dead or moribund)
# Procedure: Rhipicephalus sanguineus—In-Vitro Contact Tests with Adult Brown Dog Ticks
# 9 mg compound is solved in 1 mL acetone and diluted with acetone to the desired concentration. 250 μL of the test solution is filled in 25 mL glass test tubes and homogeneously distributed on the inner walls by rotation and tilting on a shaking device (2 h at 30 rpm). With a compound concentration of 900 ppm, an inner surface of 44.7 cm^2 and a homogeneous distribution, a dose of 5 μg/cm^2 is achieved.
# After the solvent has evaporated, each test tube is filled with 5-10 adult brown dog ticks (Rhipicephalus sanguineus), closed with a perforated lid and incubated in a lying position at room temperature and relative humidity. After 48 hours efficacy is determined. The ticks are patted on the ground of the tubes and are incubated on a heating plate at 45-50° C. for at most 5 minutes. Immotile or uncoordinated moving ticks, which are not able to escape the heat by climbing upwards, are marked as dead or moribund.
# An efficacy of 100% means all ticks are dead or moribund; 0% means no ticks are dead or moribund.
# [6] = test system: larvae of the banded cucumber beetle (Diabrotica balteata); test: Diabrotica balteata spray test; details: 168 h, 100 g/ha (=32 μg/well), wheat seeds, after 7 days, read-out: efficacy (seedling growth)
# How it was run: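 Efficacy in % was read 7 days after infesting with 10-20 larvae per unit. Before infestation, 1-day-germinated wheat seedlings (5 per well) were sprayed with the active ingredient, formulated in acetone and dimethylformamide plus emulsifier and diluted with water containing emulsifier.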
# [7] = test system: brown planthopper (Nilaparvata lugens); test: Nilaparvata lugens spray test; details: 96 h, rice plants, after 4 days
# Procedure: Nilaparvata lugens—Spray Test • Solvent: 78.0 parts by weight of acetone • 1.5 parts by weight of dimethylformamide • Emulsifier: alkylarylpolyglycol ether
# To produce a suitable preparation of active compound, 1 part by weight of active compound is mixed with the stated amount of solvents and is diluted with water, containing an emulsifier concentration of 1000 ppm, to the desired concentration. Further test concentrations are prepared by dilution with emulsifier containing water.
# Rice plants (Oryza sativa) are sprayed with a preparation of the active ingredient of the desired concentration and the plants are infested with the brown planthopper (Nilaparvata lugens).
# After 4 days mortality in % is determined. 100% means all planthoppers have been killed and 0% means none of the planthoppers have been killed.
# [8] = test system: fall armyworm larvae (Spodoptera frugiperda); test: Spodoptera frugiperda spray test (maize leaf sections); details: 168 h
# How it was run: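 Percent kill of Spodoptera frugiperda caterpillars read at day 7. Larvae placed on dried Zea mays leaf pieces previously sprayed with test preparation, made from acetone plus DMF and diluted with emulsifier-containing water (1000 ppm).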
# [9] = test system: green peach aphid (Myzus persicae); test: Myzus persicae oral test; details: 120 h
# How it was run: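 Compound was dissolved in acetone, diluted with water and mixed into IPL41 insect medium with sugar under a parafilm seal. A mixed aphid population fed through the parafilm, and mortality (%) was scored after 5 days.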
# [10] = test system: green peach aphid (Myzus persicae); test: Myzus persicae spray test; details: foliar, 120 h, Chinese cabbage leaf disks, after 5 days
# How it was run: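 Percent mortality read 5 days after spraying, where 100% is total kill and 0% none. The spray contained compound in acetone plus dimethylformamide, diluted with 1000 ppm emulsifier water. It was applied to Brassica pekinensis leaf disks carrying mixed-instar green peach aphids.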
# [11] = test system: adult mosquitoes Aedes aegypti strain MONHEIM; test: Aedes aegypti test (AEDSAE surface treatment & contact assay); details: 24 hours after contact, read-out: efficacy (mortality); for mortality at 20 mg/m2: surface concentration 20 mg/m^2, 30 min exposure
# Procedure: Aedes aegypti test (AEDSAE surface treatment & contact assay) • Solvent: Aceton+2000 ppm rapeseed oil methyl ester (RME)
# (§1) In order to produce a sufficient, active ingredient containing solution it is necessary to solve the test compound in the solvent-mix (acetone at 2 mg/ml/RME 2000 ppm). This solution is pipetted onto a glazed tile and after evaporation of the acetone, adult mosquitoes of the species Aedes aegypti strain MONHEIM are placed onto the dried surface. The exposure time is 30 minutes.
# (§2) Mortality in percent (%) is determined 24 hours after contact of the insects to the treated surface. 100% mortality means that all tested insects are dead, whereas 0% means that no insect died.
# [12] = test system: adult flies Musca domestica strain WHO-N; test: Musca domestica test (MUSCDO surface treatment & contact assay); details: 24 hours after contact, read-out: efficacy (mortality); for mortality at 4 mg/m2: surface concentration 4 mg/m^2, 30 min exposure; for mortality at 20 mg/m2: surface concentration 20 mg/m^2, 30 min exposure
# Procedure: Musca domestica Test (MUSCDO Surface Treatment & Contact Assay) • Solvent: Aceton+2000 ppm rapeseed oil methyl ester (RME)
# as §1, with “flies” for “mosquitoes”, “Musca domestica” for “Aedes aegypti”, “WHO-N” for “MONHEIM”
# as §2
# [13] = test system: larvae of the southern green stink bug (Nezara viridula); test: Nezara viridula spray test; details: in Hordeum vulgare, 96 h
# How it was run: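 Mortality (%) of stink bug larvae on treated barley (Hordeum vulgare) was scored 4 days after infestation. Test solutions came from an acetone/DMF concentrate diluted with water containing 1000 ppm emulsifier and were sprayed onto plants before larvae were added.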
SMILES,pest or weed control at 5 µg/cm2 [1] [%],pest or weed control at 0.004 mg [2] [%],efficacy (fleas dead or moribund) [3] [%],mortality at 100 ppm [4] [%],"pest or weed control at 5 µg/cm2, 500 g/ha [5] [%]","pest or weed control at 32 µg/disc, 100 g/ha [6] [%]",mortality at 100 g/ha ([7]; 100 g/ha) [%],mortality at 100 g/ha [8] [%],mortality at 4 ppm [9] [%],mortality at 100 g/ha [10] [%],"mortality at 4 mg/m2 ([11]; surface concentration 4 mg/m^2, 30 min exposure) [%]",mortality at 20 mg/m2 [11] [%],mortality at 4 mg/m2 [12] [%],mortality at 20 mg/m2 [12] [%],mortality at 100 g/ha [13] [%],mortality at 500 g/ha [13] [%],mortality at 500 g/ha [7] [%]
Cc1nc([C@H](C)NC(=O)c2cc(C(F)(F)F)cc(C(F)(F)F)c2)n(-c2ncc(C(=O)N(C)C(C)C)s2)n1 [I-10],100,100,90,100,100,100,90,100,,,,,,,,,
Cc1nc([C@H](C)NC(=O)c2cc(Cl)cc(C(F)F)c2)n(-c2ncc(C#N)s2)n1 [I-18],100,100,,100,100,100,,100,100,100,80 to 100,80 to 100,90 to 100,80 to 100,,,
"Cc1nc([C@H](C)NC(=O)c2cc(OC(F)(F)F)cc(C3CC3)c2)n(-c2ncc(C(=O)N(C)CC#N)s2)n1 [I-24, N-(cyanomethyl)-2-(5-{(1S)-1-[3-cyclopropyl-5-(trifluoromethoxy)benzamido]ethyl}-3-methyl-1H-1,2,4-triazol-1-yl)-N-methyl-1,3-thiazole-5-carboxamide]",100,100,100,100,80,100,,100,100,100,,,,,,,
C[C@H](NC(=O)c1cc(C(F)(F)F)cc(S(C)(=O)=O)c1)c1ncnn1-c1ncc(C(=O)N(C)C)s1 [I-65],,,100,,,100,,100,,100,,,,,100,100,90
C[C@H](NC(=O)c1cc(OC(F)(F)F)cc(C2CC2)c1)c1ncnn1-c1ncc(C(=O)N(C)C)s1 [I-89],100,,100,,80,100,,100,,100,,80 to 100,,80 to 100,,100,100
Cc1nc([C@H](C)NC(=O)c2cc(OC(F)(F)F)cc(C3CC3)c2)n(-c2ncc(C#N)s2)n1 [I-91],100,,,,100,100,,100,,90,,80 to 100,90 to 100,80 to 100,,100,100
CNC(=O)c1cnc(-n2nc(C)nc2[C@H](C)NC(=O)c2cc(C(F)(F)F)cc(C(F)(F)F)c2)s1 [I-102],100,,100,,,100,,100,,90,,,,,,100,100
CNC(=O)c1cnc(-n2ncnc2[C@H](C)NC(=O)c2cc(OC(F)(F)F)cc(S(C)(=O)=O)c2)s1 [I-113],,,,,,100,,,,100,,,,,100,100,100
C[C@H](NC(=O)c1cc(OC(F)F)cc(OC(F)F)c1)c1ncnn1-c1ncc(C(=O)N(C)C)s1 [I-119],,,,,,100,,100,,90,,,,,100,100,100
C[C@H](NC(=O)c1cc(OC(F)(F)F)cc(S(C)(=O)=O)c1)c1ncnn1-c1ncc(C(=O)N(C)C)s1 [I-120],,,,,,,,100,,90,,,,,100,100,100
Cc1nc([C@H](C)NC(=O)c2cc(OC(F)(F)F)cc(C3CC3)c2)n(-c2ncc(C(=O)N(C)CC3CC3)s2)n1 [I-128],,,,,,100,,100,,90,,,,,90,100,100
CCN(C)C(=O)c1cnc(-n2nc(C)nc2[C@H](C)NC(=O)c2cc(OC(F)(F)F)cc(C3CC3)c2)s1 [I-129],,,,,,100,,100,,100,,,,,,,100
C[C@H](NC(=O)c1cc(S(=O)(=O)C(F)(F)F)cc(S(=O)(=O)C(F)(F)F)c1)c1ncnn1-c1ncc(C#N)s1 [I-138],,,,,,100,,100,,,,,,,,,100
Cc1nc([C@H](C)NC(=O)c2cc(C(F)(F)F)cc(S(C)(=O)=O)c2)n(-c2ncc(C#N)s2)n1 [I-165],,,,,,100,,100,,,,,,,,100,100
